From patent US9682990B2, “Alcohol-, diol-, and carbohydrate-substituted indenoisoquinolines as topoisomerase I inhibitors” (Purdue Research Foundation, priority 2011, dated 2017)
Like-named read-outs stand apart in the source and are kept apart here. Marks after values point to notes of the source that are not given here.

Key:
HOP-62 (Lung) = experiment: NCI Developmental Therapeutics antiproliferative assay, HOP-62; format: cell-based, human
Method: (§1) Biological Results. The indenoisoquinoline analogues were tested for antiproliferative activity in the National Cancer Institute's Developmental Therapeutics Assay against cell lines derived from approximately 60 different human tumors.

HCT-116 (Colon) = experiment: NCI Developmental Therapeutics antiproliferative assay, HCT-116; format: cell-based, human
Method: as §1

SF-539 (CNS) = experiment: NCI Developmental Therapeutics antiproliferative assay, SF-539; format: cell-based, human
Method: (§2) Biological Results. The indenoisoquinoline analogues were tested for antiproliferative activity in the National Cancer Institute's Developmental Therapeutics Assay against cell lines derived from approximately 60 different human tumors. […] Results are reported in Table 2 as GI50 values for selected cell lines, and overall antiproliferative potency is quantified as a mean-graph midpoint (MGM).

UACC-62 (Melanoma) = experiment: NCI Developmental Therapeutics antiproliferative assay, UACC-62; format: cell-based, human
Method: as §1

OVCAR-3 (Ovarian) = experiment: NCI Developmental Therapeutics antiproliferative assay, OVCAR-3; format: cell-based, human
Method: as §2

SN12C (Renal) = experiment: NCI Developmental Therapeutics antiproliferative assay, SN12C; format: cell-based, human
Method: as §2

DU-145 (Prostate) = experiment: NCI Developmental Therapeutics antiproliferative assay, DU-145; format: cell-based, human
Method: as §1

MCF7 (Breast) = experiment: NCI Developmental Therapeutics antiproliferative assay, MCF7; format: cell-based, human
Method: as §2

[1] = tested on: all human cancer cell lines successfully tested; experiment: NCI-60 cell line assay, mean-graph midpoint; format: cell-based; settings: for GI50: read-out: MGM GI50; for MGM (mean graph midpoint for growth inhibition): all human cancer cell lines tested, 10^−8 to 10^−4 molar
Method: Biological Results. The indenoisoquinoline analogues were tested for antiproliferative activity in the National Cancer Institute's Developmental Therapeutics Assay against cell lines derived from approximately 60 different human tumors. […] The cytotoxicities of the compounds to cultured cancer cells were measured in the National Cancer Institute's 60 cell line assay (a.k.a. NCI-60).

[2] = tested on: cell lines derived from approximately 60 different human tumors; experiment: NCI initial one-dose screening assay; format: cell-based; settings: percentage of cell growth, one-dose assay at 10 μM
[3] = Homo sapiens, HOP-62, 50% growth inhibition, read-out: Cytotoxicity (GI50) Lung HOP-62
[4] = Homo sapiens, HCT-116, 50% growth inhibition, read-out: Cytotoxicity (GI50) Colon HCT-116
[5] = Homo sapiens, SF-539, 50% growth inhibition, read-out: Cytotoxicity (GI50) CNS SF-539
[6] = Homo sapiens, UACC-62, 50% growth inhibition, read-out: Cytotoxicity (GI50) Melanoma UACC-62
[7] = Homo sapiens, OVCAR-3, 50% growth inhibition, read-out: Cytotoxicity (GI50) Ovarian OVCAR-3
[8] = Homo sapiens, SN12C, 50% growth inhibition, read-out: Cytotoxicity (GI50) Renal SN12C
[9] = Homo sapiens, DU-145, 50% growth inhibition, read-out: Cytotoxicity (GI50) Prostate DU-145
[10] = Homo sapiens, MCF7, 50% growth inhibition, read-out: Cytotoxicity (GI50) Breast MCF7

O=C1c2ccccc2-c2c1c1ccccc1c(=O)n2CC(O)CO (racemic) [Compound 12c, (2′RS)-5,6-Dihydro-6-[(2′,3′-dihydroxypropyl)]-5,11-dioxo-11H-indeno[1,2-c]isoquinoline]
GI50 (HOP-62 (Lung); [3]): 7.76 µM | GI50 (HCT-116 (Colon); [4]): 4.36 µM | GI50 (SF-539 (CNS); [5]): 5.89 µM | GI50 (UACC-62 (Melanoma); [6]): 7.58 µM | GI50 (OVCAR-3 (Ovarian); [7]): 18.6 µM | GI50 (SN12C (Renal); [8]): 2.95 µM | GI50 (DU-145 (Prostate); [9]): 2.88 µM | GI50 (MCF7 (Breast); [10]): 3.55 µM | GI50 ([1]; Homo sapiens): 5.13 µM | MGM (mean graph midpoint for growth inhibition) [1]: 5.13 µM

O=C1c2ccccc2-c2c1c1ccccc1c(=O)n2C[C@@H](O)[C@H](O)[C@H](O)CO [Compound 17a, (2′R, 3′S, 4′R)-5,6-Dihydro-6-(2′,3′,4′,5′-tetrahydroxypentyl)-5,11-dioxo-11H-indeno[1,2-c]isoquinoline]
GI50 (HOP-62 (Lung)): 8.71 µM | GI50 (SF-539 (CNS)): 7.59 µM | GI50 (UACC-62 (Melanoma)): 7.41 µM | GI50 (OVCAR-3 (Ovarian)): > 100 µM | GI50 (SN12C (Renal)): 20 µM | GI50 (MCF7 (Breast)): 4.57 µM | MGM (mean graph midpoint for growth inhibition) [1]: 19.9 µM | Growth Percent [2]: 58.44%

O=C1c2ccccc2-c2c1c1ccccc1c(=O)n2C[C@H](O)[C@H](O)[C@H](O)CO [Compound 17b, (2′S,3′S,4′R)-5,6-Dihydro-6-(2′,3′,4′,5′-tetrahydroxypentyl)-5,11-dioxo-11H-indeno[1,2-c]isoquinoline]
GI50 (SF-539 (CNS)): 2.14 µM | GI50 (UACC-62 (Melanoma)): 3.23 µM | GI50 (OVCAR-3 (Ovarian)): 13.5 µM | GI50 (SN12C (Renal)): 2.4 µM | GI50 (MCF7 (Breast)): 1.38 µM | MGM (mean graph midpoint for growth inhibition) [1]: 3.31 µM | Growth Percent [2]: 17.28%

O=C1c2ccccc2-c2c1c1ccccc1c(=O)n2C[C@H](O)[C@@H](O)[C@H](O)[C@H](O)CO [Compound 17c, (2′S,3′R,4′R,5′R)-5,6-Dihydro-6-(2′,3′,4′,5′,6′-pentahydroxyhexyl)-5,11-dioxo-11H-indeno[1,2-c]isoquinoline]
Growth Percent [2]: 97.16^e %

O=C1c2ccccc2-c2c1c1ccccc1c(=O)n2C[C@H](O)[C@@H](O)[C@H](O)CO [Compound 17d, (2′S,3′R,4′R)-5,6-Dihydro-6-(2′,3′,4′,5′-tetrahydroxypentyl)-5,11-dioxo-11H-indeno[1,2-c]isoquinoline]
GI50 (HOP-62 (Lung)): 3.23 µM | GI50 (SF-539 (CNS)): 7.94 µM | GI50 (OVCAR-3 (Ovarian)): 24 µM | GI50 (SN12C (Renal)): 2.24 µM | GI50 (MCF7 (Breast)): 1.74 µM | MGM (mean graph midpoint for growth inhibition) [1]: 4.07 µM | Growth Percent [2]: 34.91%

O=C1c2ccccc2-c2c1c1ccccc1c(=O)n2C[C@@H](O)[C@@H](O)[C@H](O)CO [Compound 17e, (2′R,3′R,4′R)-5,6-Dihydro-6-(2′,3′,4′,5′-tetrahydroxypentyl)-5,11-dioxo-11H-indeno[1,2-c]isoquinoline]
GI50 (HOP-62 (Lung)): 6.46 µM | GI50 (SF-539 (CNS)): 11.2 µM | GI50 (UACC-62 (Melanoma)): 6.31 µM | GI50 (OVCAR-3 (Ovarian)): 13.2 µM | GI50 (SN12C (Renal)): 5.01 µM | GI50 (MCF7 (Breast)): 1.9 µM | MGM (mean graph midpoint for growth inhibition) [1]: 7.76 µM | Growth Percent [2]: 50.62%

O=C1c2ccccc2-c2c1c1ccccc1c(=O)n2C[C@@H](O)[C@@H](O)[C@H](O)[C@H](O)CO [Compound 17f, (2′R, 3′R, 4′R, 5′R)-5,6-Dihydro-6-(2′,3′,4′,5′,6′-pentahydroxyhexyl)-5,11-dioxo-11H-indeno[1,2-c]isoquinoline]
Growth Percent [2]: 69.35%

O=C1c2ccccc2-c2c1c1ccccc1c(=O)n2C[C@H](O)[C@@H](O)[C@@H](O)CO [Compound 17g, (2′S,3′R,4′S,5′R)-5,6-Dihydro-6-(2′,3′,4′,5′-tetrahydroxypentyl)-5,11-dioxo-11H-indeno[1,2-c]isoquinoline]
Growth Percent [2]: 67.99%

O=C1c2ccccc2-c2c1c1ccccc1c(=O)n2C[C@H](O)[C@H](O)[C@H](O)[C@H](O)CO [Compound 17h, (2′S,3′S,4′R,5′R)-5,6-Dihydro-6-(2′,3′,4′,5′,6′-pentahydroxyhexyl)-5,11-dioxo-11H-indeno[1,2-c]isoquinoline]
GI50 (HOP-62 (Lung)): 3.23 µM | GI50 (HCT-116 (Colon)): 4.17 µM | GI50 (SF-539 (CNS)): 5.75 µM | GI50 (UACC-62 (Melanoma)): 2.95 µM | GI50 (OVCAR-3 (Ovarian)): 13.8 µM | GI50 (SN12C (Renal)): 3.39 µM | GI50 (DU-145 (Prostate)): 3.31 µM | GI50 (MCF7 (Breast)): 1.78 µM | MGM (mean graph midpoint for growth inhibition) [1]: 5.75 µM | Growth Percent [2]: 49.31%

O=C1c2ccccc2-c2c1c1ccc([N+](=O)[O-])cc1c(=O)n2C[C@H](O)[C@@H](O)[C@H](O)[C@H](O)CO [Compound 19, (2′S,3′R,4′R,5′R)-5,6-Dihydro-6-(2′,3′,4′,5′,6′-pentahydroxyhexyl)-3-nitro-5,11-dioxo-11H-indeno[1,2-c]isoquinoline]
GI50 (HOP-62 (Lung); [3]): 7.35 µM | GI50 (HCT-116 (Colon); [4]): 5.08 µM | GI50 (SF-539 (CNS); [5]): 2.61 µM | GI50 (UACC-62 (Melanoma); [6]): 2.98 µM | GI50 (OVCAR-3 (Ovarian); [7]): 4.26 µM | GI50 (SN12C (Renal); [8]): 17.7 µM | GI50 (DU-145 (Prostate); [9]): 4.76 µM | GI50 (MCF7 (Breast); [10]): 0.88 µM | MGM (mean graph midpoint for growth inhibition) [1]: 4.60 ± 0.53 µM | Growth Percent [2]: 58.05%

O=C(CO)Cn1c2c(c3ccccc3c1=O)C(=O)c1ccccc1-2 [Compound 25, 5,6-Dihydro-6-(3′-hydroxy-2′-oxopropyl)-5,11-dioxo-11H-indeno[1,2-c]isoquinoline]
GI50 (HOP-62 (Lung); [3]): 40.7 µM | GI50 (HCT-116 (Colon); [4]): 30.9 µM | GI50 (SF-539 (CNS); [5]): 20 µM | GI50 (UACC-62 (Melanoma); [6]): 58.9 µM | GI50 (OVCAR-3 (Ovarian); [7]): 5.23 µM | GI50 (SN12C (Renal); [8]): 81.3 µM | GI50 (DU-145 (Prostate); [9]): 17.8 µM | GI50 (MCF7 (Breast); [10]): 32.3 µM | MGM (mean graph midpoint for growth inhibition) [1]: 20.9 µM | Growth Percent [2]: 72.36%

C[C@H](O)Cn1c2c(c3ccccc3c1=O)C(=O)c1ccccc1-2 [Compound 27b, (2′S)-5,6-Dihydro-6-(2′-hydroxypropyl)-5,11-dioxo-11H-indeno[1,2-c]isoquinoline]
Growth Percent [2]: 54.88%

COc1cc2c3c(n(C[C@H](O)CO)c(=O)c2cc1OC)-c1ccccc1C3=O [Compound 29, (2′S)-5,6-Dihydro-6-(2′,3′-dihydroxypropyl)-2,3-dimethoxy-5,11-dioxo-11H-indeno[1,2-c]isoquinoline]
GI50 (HOP-62 (Lung)): 0.336 µM | GI50 (HCT-116 (Colon)): 0.23 µM | GI50 (SF-539 (CNS)): 0.214 µM | GI50 (UACC-62 (Melanoma)): 0.144 µM | GI50 (OVCAR-3 (Ovarian)): 0.287 µM | GI50 (SN12C (Renal)): 0.501 µM | GI50 (DU-145 (Prostate)): 0.419 µM | GI50 (MCF7 (Breast)): 0.097 µM | MGM (mean graph midpoint for growth inhibition) [1]: 0.401 ± 0.055 µM | GI50 [1]: 0.401 µM

O=C1c2ccccc2-c2c1c1ccc([N+](=O)[O-])cc1c(=O)n2C[C@H](O)CO [Compound 30, (2′S)-5,6-Dihydro-6-(2′,3′-dihydroxypropyl)-3-nitro-5,11-dioxo-11H-indeno[1,2-c]isoquinoline]
MGM (mean graph midpoint for growth inhibition) [1]: 0.156 ± 0.061 µM | GI50 [1]: 0.156 µM

NCCCn1c2c(c3ccc([N+](=O)[O-])cc3c1=O)C(=O)c1cc3c(cc1-2)OCO3 [reference compound]
GI50 ([1]; Homo sapiens, Table 3, NCI-60, unit inferred): 0.09 ± 0.04 µM

(1′R)-5,6-Dihydro-6-(3′-hydroxy-1′-methylethyl)-5,11-dioxo-11H-indeno[1,2-c]isoquinoline [Compound 22b]
Growth Percent [2]: 78.60%

(1′RS)-5,6-Dihydro-6-(3′-hydroxy-2′-methylethyl)-5,11-dioxo-11H-indeno[1,2-c]isoquinoline [Compound 22c]
GI50 (HOP-62 (Lung)): 17.6 µM | GI50 (HCT-116 (Colon)): 15.9 µM | GI50 (SF-539 (CNS)): 14.4 µM | GI50 (UACC-62 (Melanoma)): 11.7 µM | GI50 (OVCAR-3 (Ovarian)): 25.7 µM | GI50 (SN12C (Renal)): 37.1 µM | GI50 (DU-145 (Prostate)): 23.7 µM | GI50 (MCF7 (Breast)): 34.4 µM | MGM (mean graph midpoint for growth inhibition) [1]: 15.6 ± 2.15 µM
